Measured values published in ChEMBL document CHEMBL1158049, “Bisindole alkaloids from myxomycetes Arcyria denudata and Arcyria obvelata” (J Nat Prod, 2006).
≈ marks a conversion by molar mass, not a printed value.

test system: Jurkat; test: Cytotoxicity against human Jurkat cells after 42 hrs by alamar blue assay; type: functional, cell-based

With O=C1NC(=O)C(c2c[nH]c3cc(O)ccc23)=C1c1c[nH]c2ccccc12 [ARCYRIARUBIN B] as the molecule, how does the IC50 read?
Its IC50 is 10 µg/mL (≈ 29.1 µM).

Which IC50 does the source give for O=C1NC(=O)C(c2c[nH]c3cc(OS(=O)(=O)O)ccc23)=C1c1c[nH]c2ccccc12 here?
Its IC50 is greater than 25 µg/mL.

How did the IC50 turn out when O=C1NC(=O)C2=C1c1c([nH]c3cc(O)ccc13)Oc1cccc3[nH]cc2c13 [ARCYROXOCIN B] was run?
The IC50 was 7 µg/mL (≈ 19.6 µM).

Which IC50 does the source give for O=C1NC(=O)[C@H]2c3c[nH]c4cccc(c34)-c3[nH]c4ccccc4c3[C@@H]12 [DIHYDROARCYRIACYANIN A] here?
The IC50 was 7 µg/mL (≈ 21.4 µM).
